Experimental data reported in patent publication US9040547B2, “Pyrrolopyrimidine and purine derivatives” (PFIZER INC., priority 2011, dated 2015).

Key:
Type in all cases: cell-based
EGFR Del (PC9) = target: T1, EGFR Del (PC9) (Homo sapiens, UniProt P00533, DEL746-750); assay: EGFR ELISA, PC9 Del cells; conditions: read-out: EGFR_ELISA9E PC9 Del IC50;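 note: cellular EGFR autophosphorylation at Tyr1068 quantified by sandwich ELISA of cell lysates after 2 h compound exposure at 37 °C, 11-point threefold dilution series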
T1 construct: endogenous in cells; host or cells: PC-9
T1 sequence (P00533 with tags, fused parts or gaps DEL746-750): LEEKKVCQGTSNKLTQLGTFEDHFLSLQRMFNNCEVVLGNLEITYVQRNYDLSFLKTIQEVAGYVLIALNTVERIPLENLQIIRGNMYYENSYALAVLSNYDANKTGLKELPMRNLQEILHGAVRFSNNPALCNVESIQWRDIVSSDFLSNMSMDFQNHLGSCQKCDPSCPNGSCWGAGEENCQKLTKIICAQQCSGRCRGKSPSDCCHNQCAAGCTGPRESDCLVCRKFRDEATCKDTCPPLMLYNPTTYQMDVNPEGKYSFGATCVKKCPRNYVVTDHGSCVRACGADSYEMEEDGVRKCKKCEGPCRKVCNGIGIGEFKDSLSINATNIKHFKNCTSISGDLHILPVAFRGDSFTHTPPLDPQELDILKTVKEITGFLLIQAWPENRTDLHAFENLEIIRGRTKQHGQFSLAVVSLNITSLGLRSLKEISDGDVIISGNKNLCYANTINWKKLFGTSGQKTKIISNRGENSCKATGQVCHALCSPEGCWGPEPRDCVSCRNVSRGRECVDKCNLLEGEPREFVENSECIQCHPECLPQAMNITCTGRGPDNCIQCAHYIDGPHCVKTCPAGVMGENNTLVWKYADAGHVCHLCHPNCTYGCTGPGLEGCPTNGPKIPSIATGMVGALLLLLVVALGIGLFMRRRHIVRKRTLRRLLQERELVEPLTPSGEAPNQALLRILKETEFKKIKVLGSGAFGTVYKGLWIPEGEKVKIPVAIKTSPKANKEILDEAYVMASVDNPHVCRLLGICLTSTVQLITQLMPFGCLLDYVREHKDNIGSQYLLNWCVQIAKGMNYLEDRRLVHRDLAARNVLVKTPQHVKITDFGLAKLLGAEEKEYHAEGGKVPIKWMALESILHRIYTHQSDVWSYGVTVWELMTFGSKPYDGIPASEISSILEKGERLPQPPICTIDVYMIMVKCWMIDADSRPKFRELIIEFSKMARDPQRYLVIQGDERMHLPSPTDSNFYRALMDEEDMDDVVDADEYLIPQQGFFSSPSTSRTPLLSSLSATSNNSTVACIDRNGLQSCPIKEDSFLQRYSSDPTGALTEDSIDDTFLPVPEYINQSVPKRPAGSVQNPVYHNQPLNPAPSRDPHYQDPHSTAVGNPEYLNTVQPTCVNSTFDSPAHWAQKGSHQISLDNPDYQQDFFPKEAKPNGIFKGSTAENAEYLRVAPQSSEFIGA

[1] = tested on: NIH3T3/EGFR_E746-A750_deletion+T790M; assay: Cell proliferation assay (CellTiter-Glo), NIH3T3/EGFR_E746-A750_deletion+T790M; conditions: Mus musculus, NIH3T3, 120 h, 3T3 cell line, three to five days of compound treatment, read-out: 3T3 del_T790M IC50
Experimental: (§1) Cell proliferation was measured using the CellTiter-Glo® Luminescent Cell Viability Assay. The assay involves the addition of a single reagent (CellTiter-Glo® Reagent) directly to cells cultured in serum-supplemented medium. The assay uses this one-step addition to induce cell lysis and generate a luminescent signal proportional to the amount of ATP present which is directly proportional to the number of metabolically active cells present in culture. The following cell lines were evaluated in this assay: NIH3T3/EGFR_L858R, NIH3T3/EGFR_E746-A750_deletion, NIH3T3/EGFR L858R+T790M, NIH3T3/EGFR_E746-A750_deletion+T790M, PC-9, PC9-DRH, NCI-H1975, and NCI-H3255. NIH/3T3 parental cells, NCI-H1975, and NCI-H3255 were purchased from the American Type Culture Collection (Manassas, Va.), and PC-9 cells were obtained from Japan. All cells were cultured according to recommendations. NIH/3T3 cells were grown in DMEM (Invitrogen, Carlsbad, Calif.) supplemented with 10% newborn calf serum (Invitrogen), and NIH3T3/EGFR mutant cells were grown in complete media with 5 μg/mL puromycin (Invitrogen). PC-9, NCI-H1975, and NCI-H3255 were grown in RPMI (Invitrogen, Carlsbad, Calif.) supplemented with 10% FBS (Sigma, St Louis, Mo.), and PC9-DRH cells were grown in complete media with 2 uM PF-00299804. Plasmids (pLPCX) with various EGFR constructs were made by GenScript (Piscataway, N.J.), and stable pools of NIH/3T3 cells expressing these constructs were made at Pfizer La Jolla. PC9-DRH cells were generated at Pfizer La Jolla by exposing cells to increasing concentrations of PF-00299804. Cells were plated in complete culture media (3000-5000 cells/well, 50 μl/well) on the bottom of white clear-bottom tissue culture treated microtiter plates (#3610, Corning Inc, Corning, N.Y.) and allowed to adhere overnight at 37° C., 5% CO2. The following day, compound dilution plates were prepared in 96 well clear V-bottom 0.5 mL polypropylene block plates (#3956, Corning, Inc). All cell lines were not evaluated for each compound. Each compound evaluated was prepared as a DMSO stock solution (10 mM). Compounds were tested in duplicate on each plate, with an 11-point serial dilution curve (1:3 dilution). Compound treatment (50 μl) was added from the compound dilution plate to the cell plate. The highest compound concentration was 1 or 10 μM (final), with a 0.3% final DMSO (#D-5879, Sigma, St Louis, Mo.) concentration. Plates were then incubated at 37° C., 5% CO2. After three to five days of compound treatment, CellTiter-Glo® Reagent (#G7573, Promega, Madison, Wis.) was prepared in one of two ways. If thawing a frozen aliquot of CellTiter-Glo® Reagent, the aliquot was thawed and equilibrated to room temperature prior to use while keeping it protected from light. Alternatively, new bottles of CellTiter-Glo® Buffer and CellTiter-Glo® Substrate were thawed and equilibrated to room temperature prior to use. CellTiter-Glo® Buffer (100 mL) was transferred into the amber bottle containing CellTiter-Glo® Substrate to reconstitute the lyophilized enzyme/substrate mixture, forming the CellTiter-Glo® Reagent. The reconstituted reagent was mixed by gently inverting the contents to obtain a homogeneous solution, and went into solution easily in less than one minute. Any unused reconstituted CellTiter-Glo® Reagent was immediately aliquoted and frozen at −20° C., protected from light. Cell plates were equilibrated at room temperature for approximately 30 minutes. An equivolume amount of CellTiter-Glo® Reagent (100 μL) was added to each well. Plates were mixed for two minutes on an orbital shaker to induce cell lysis, and then allowed to incubate at room temperature for 10 minutes to stabilize the luminescent signal. Luminescence was recorded using the PerkinElmer EnVision Excite Multilabel Reader used for endpoint reading for Luminescence detection (Waltham, Mass.). Data were analyzed using a four-parameter fit in Microsoft Excel. […]

EGFR L858R+T790M = EGFR L858R+T790M (Homo sapiens, UniProt P00533, L858R/T790M); assay: pEGFR Y1068 ELISA assay, NIH3T3/EGFR_L858R+T790M cells; conditions: 3T3 cell line, 2 hrs compound treatment; read-out: pEGFRY1068 ELISA3T3T790M—L858R IC50;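 note: sandwich ELISA of EGFR phosphorylated at Tyr1068 in lysates of stably transfected NIH/3T3 cells, 11-point threefold dilution series run in duplicate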
Sequence of EGFR L858R+T790M (P00533 25-1210 T790M/L858R): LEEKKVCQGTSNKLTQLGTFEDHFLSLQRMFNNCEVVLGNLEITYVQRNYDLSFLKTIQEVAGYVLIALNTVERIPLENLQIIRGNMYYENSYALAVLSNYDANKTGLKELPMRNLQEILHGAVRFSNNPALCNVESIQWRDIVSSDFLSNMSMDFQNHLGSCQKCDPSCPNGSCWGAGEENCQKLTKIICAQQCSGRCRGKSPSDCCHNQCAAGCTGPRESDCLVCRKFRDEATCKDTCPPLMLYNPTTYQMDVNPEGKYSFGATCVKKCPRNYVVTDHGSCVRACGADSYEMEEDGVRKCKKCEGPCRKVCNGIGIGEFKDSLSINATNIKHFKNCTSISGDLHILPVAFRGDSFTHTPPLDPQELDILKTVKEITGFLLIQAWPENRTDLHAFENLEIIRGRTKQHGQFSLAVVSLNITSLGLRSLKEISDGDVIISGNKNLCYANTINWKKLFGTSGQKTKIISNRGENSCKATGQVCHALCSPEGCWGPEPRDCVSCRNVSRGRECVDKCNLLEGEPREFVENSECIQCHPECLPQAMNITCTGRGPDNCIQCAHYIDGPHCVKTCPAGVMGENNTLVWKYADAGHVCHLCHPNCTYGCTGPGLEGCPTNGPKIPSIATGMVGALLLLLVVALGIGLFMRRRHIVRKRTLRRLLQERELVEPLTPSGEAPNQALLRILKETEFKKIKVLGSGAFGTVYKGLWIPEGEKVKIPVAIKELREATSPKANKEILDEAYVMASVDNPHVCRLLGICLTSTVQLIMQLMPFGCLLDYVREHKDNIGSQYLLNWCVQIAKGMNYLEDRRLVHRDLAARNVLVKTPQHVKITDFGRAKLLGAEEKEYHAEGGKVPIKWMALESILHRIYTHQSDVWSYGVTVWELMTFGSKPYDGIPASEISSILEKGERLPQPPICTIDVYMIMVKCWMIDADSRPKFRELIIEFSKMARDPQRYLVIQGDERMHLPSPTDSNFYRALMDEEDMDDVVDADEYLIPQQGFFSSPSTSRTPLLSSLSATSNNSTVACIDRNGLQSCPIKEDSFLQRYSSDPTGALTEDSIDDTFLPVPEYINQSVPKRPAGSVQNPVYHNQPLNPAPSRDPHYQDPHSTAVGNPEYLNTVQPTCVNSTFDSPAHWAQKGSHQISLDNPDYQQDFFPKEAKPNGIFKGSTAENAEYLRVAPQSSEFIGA

[2] = target: T2, EGFR wildtype, endogenous (Homo sapiens, UniProt P00533); assay: pEGFR Y1068 ELISA assay, A549 cells; conditions: full serum media, stimulated 10 min with EGF (40 ng/mL), read-out: pEGFRY1068 ELISAA549 IC50;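 note: sandwich ELISA of phospho-EGFR Tyr1068 in cell lysates, cells exposed to compound for 2 h before EGF stimulation, 11-point threefold dilution series run in duplicate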
T2 construct: A549 (EGFR wildtype, endogenous); host or cells: A549
T2 sequence (P00533 25-1210): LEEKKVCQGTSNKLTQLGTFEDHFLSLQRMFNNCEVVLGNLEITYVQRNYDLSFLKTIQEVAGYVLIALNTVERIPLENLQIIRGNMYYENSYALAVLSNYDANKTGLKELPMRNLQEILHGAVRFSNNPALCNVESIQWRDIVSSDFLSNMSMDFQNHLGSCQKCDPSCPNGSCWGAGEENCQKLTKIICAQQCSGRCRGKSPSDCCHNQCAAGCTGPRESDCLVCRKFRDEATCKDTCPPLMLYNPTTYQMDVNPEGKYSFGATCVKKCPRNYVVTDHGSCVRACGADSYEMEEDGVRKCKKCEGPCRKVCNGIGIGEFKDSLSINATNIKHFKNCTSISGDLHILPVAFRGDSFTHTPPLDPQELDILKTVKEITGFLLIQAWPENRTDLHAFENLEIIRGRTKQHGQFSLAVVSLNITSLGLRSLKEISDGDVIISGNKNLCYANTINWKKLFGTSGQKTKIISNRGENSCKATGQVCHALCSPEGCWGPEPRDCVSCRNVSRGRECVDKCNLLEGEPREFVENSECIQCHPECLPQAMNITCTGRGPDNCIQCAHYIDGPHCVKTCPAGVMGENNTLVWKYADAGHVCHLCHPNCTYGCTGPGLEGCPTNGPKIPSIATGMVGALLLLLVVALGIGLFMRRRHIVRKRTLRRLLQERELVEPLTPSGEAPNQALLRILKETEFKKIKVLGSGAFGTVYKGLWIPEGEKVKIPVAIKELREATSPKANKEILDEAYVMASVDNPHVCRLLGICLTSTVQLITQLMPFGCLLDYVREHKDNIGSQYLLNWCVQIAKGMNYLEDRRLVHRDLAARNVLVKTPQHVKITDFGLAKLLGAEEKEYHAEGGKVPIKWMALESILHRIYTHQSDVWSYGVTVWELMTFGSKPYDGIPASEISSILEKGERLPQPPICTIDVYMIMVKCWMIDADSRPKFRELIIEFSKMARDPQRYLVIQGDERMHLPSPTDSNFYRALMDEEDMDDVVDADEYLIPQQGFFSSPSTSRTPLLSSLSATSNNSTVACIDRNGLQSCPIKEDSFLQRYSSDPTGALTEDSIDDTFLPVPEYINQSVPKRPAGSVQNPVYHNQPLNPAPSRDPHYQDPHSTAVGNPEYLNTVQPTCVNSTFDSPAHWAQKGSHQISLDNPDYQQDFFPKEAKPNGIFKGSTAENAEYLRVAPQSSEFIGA

[3] = tested on: NIH3T3/EGFR_E746-A750_deletion; assay: Cell proliferation assay (CellTiter-Glo), NIH3T3/EGFR_E746-A750_deletion; conditions: Mus musculus, NIH3T3, 120 h, 3T3 cell line, three to five days of compound treatment, read-out: 3T3 del IC50
Experimental: as §1

NIH3T3/EGFR_L858R = assay: Cell proliferation assay (CellTiter-Glo), NIH3T3/EGFR_L858R; conditions: Mus musculus, NIH3T3, 120 h, 3T3 cell line, three to five days of compound treatment, read-out: 3T3 L858R IC50
Experimental: as §1

EGFR L858R = EGFR L858R (Homo sapiens, UniProt P00533, L858R); assay: pEGFR Y1068 ELISA assay, NIH3T3/EGFR_L858R cells; conditions: 3T3 cell line, 2 hrs compound treatment; read-out: pEGFRY1068 ELISA3T3 L858R IC50;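 note: sandwich ELISA of phospho-EGFR Tyr1068 in lysates of stably transfected NIH/3T3 pools after 2 h compound exposure at 37 °C, 11-point threefold dilution series run in duplicate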
NIH3T3/EGFR L858R+T790M = assay: Cell proliferation assay (CellTiter-Glo), NIH3T3/EGFR L858R+T790M; conditions: Mus musculus, NIH3T3, 120 h, 3T3 cell line, three to five days of compound treatment, read-out: 3T3 L858R_T790M IC50
EGFR E746-A750 deletion = EGFR E746-A750 deletion (Homo sapiens, UniProt P00533, DEL746-750); assay: pEGFR Y1068 ELISA assay, NIH3T3/EGFR_E746-A750 deletion cells; conditions: 3T3 Del cells, 2 hrs compound treatment; read-out: ELISA7E 3T3 Del IC50;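 note: sandwich ELISA on cell lysates detecting phospho-EGFR at Tyr1068, compounds run as 11-point threefold dilution series in duplicate, IC50 from inhibition of this phosphorylation signal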
Sequence of EGFR E746-A750 deletion (P00533 with tags, fused parts or gaps DEL746-750): as the sequence (P00533 with tags, fused parts or gaps DEL746-750) above

EGFR L858R, endogenous = target: T3, EGFR L858R, endogenous (Homo sapiens, UniProt P00533, L858R); assay: pEGFR Y1068 ELISA assay, NCI-H3255 cells; conditions: value marked (H3255): NCI-H3255 cells, 2 hrs compound treatment; read-out: pEGFRY1068 ELISA3T3 L858R IC50 (nM), (H3255)
T3 construct: NCI-H3255 (EGFR L858R, endogenous); endogenous in cells; host or cells: NCI-H3255

[4] = target: T4, EGFR L858R+T790M, endogenous (Homo sapiens, UniProt P00533, L858R/T790M); assay: pEGFR Y1068 ELISA assay, NCI-H1975 cells; conditions: value marked (H1975): NCI-H1975 cells, 2 hrs compound treatment; read-out: pEGFRY1068 ELISA3T3T790M—L858R IC50 (nM), (H1975);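 note: sandwich ELISA of endogenous phospho-EGFR (Tyr1068) in lysates of treated cells, 11-point 1:3 serial dilution tested in duplicate per plate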
T4 construct: NCI-H1975 (EGFR L858R+T790M, endogenous); host or cells: NCI-H1975

| IC50 (EGFR Del (PC9)) [nM] | IC50 (EGFR L858R+T790M) [nM] | IC50 [2] [nM] | IC50 (EGFR L858R) [nM] | IC50 (EGFR E746-A750 deletion) [nM] | IC50 (EGFR L858R, endogenous) [nM] | IC50 [4] [nM] | Structure (SMILES) | IC50 [1] [nM] | IC50 [3] [nM] | IC50 (NIH3T3/EGFR_L858R) [nM] | IC50 (NIH3T3/EGFR L858R+T790M) [nM] |
| --- | --- | --- | --- | --- | --- | --- | --- | --- | --- | --- | --- |
| 982 | 221 | > 10000 | 1810 | 1320 | – | – | C=CC(=O)N[C@H]1C[C@@H](Oc2nc(Nc3cnn(C)c3)nc3[nH]cc(C#N)c23)C1 (single isomer, unassigned) [Example 5, N-[cis-3-({5-cyano-2-[(1-methyl-1H-pyrazol-4-yl)amino]-7H-pyrrolo[2,3-d]pyrimidin-4-yl}oxy)cyclobutyl]prop-2-enamide] | 100 to 1000 | 100 to 1000 | > 1000 | 100 to 1000 |
| 630 | – | – | – | – | 41 | 34 | C=CC(=O)N1C[C@@H]2CN(c3nc(Nc4cnn(C)c4)nc4[nH]cc(Cl)c34)C[C@]2(OC)C1 (single isomer, unassigned) [Example 88] | – | – | – | – |
| 4250 | – | > 10000 | – | – | 101 | 153 | C=CC(=O)N1C[C@H](COc2nc(Nc3cnn(CC(C)O)c3)nc3[nH]cc(Cl)c23)[C@@H](OC)C1 (single isomer, unassigned) [Example 100] | – | – | – | – |
| – | – | > 10000 | – | – | 241 | 63 | C=CC(=O)N1CCOC2(CCN(c3nc(Nc4cnn(C)c4)nc4[nH]cc(Cl)c34)C2)C1 (single isomer, unassigned) [Example 112] | – | – | – | – |
| – | – | > 10000 | 8860 | – | – | 525 | C=CC(=O)N[C@@H]1CCCN(c2nc(Nc3cnn(C)c3)nc3[nH]cc(Cl)c23)C1 [Example 11, N-[(3R)-1-{5-chloro-2-[(1-methyl-1H-pyrazol-4-yl)amino]-7H-pyrrolo[2,3-d]pyrimidin-4-yl}piperidin-3-yl]prop-2-enamide] | 100 to 1000 | > 1000 | > 1000 | 100 to 1000 |
| 2780 | – | > 10000 | – | – | 782 | 689 | C=CC(=O)N[C@H]1C[C@H](Oc2nc(Nc3cnn(C)c3)nc3[nH]cc(-c4ccccn4)c23)C1 [Example 12, N-[trans-3-({2-[(1-methyl-1H-pyrazol-4-yl)amino]-5-(pyridin-2-yl)-7H-pyrrolo[2,3-d]pyrimidin-4-yl}oxy)cyclobutyl]prop-2-enamide] | – | – | – | – |
| – | – | > 10000 | – | 56 | – | 146 | C=CC(=O)Nc1cccc(Oc2nc(Nc3cc[nH]n3)nc3[nH]ccc23)c1 [Example 27] | – | – | – | – |
| 44 | 67 | > 10000 | 105 | 25 | – | – | C=CC(=O)Nc1cccc(Oc2nc(Nc3cnn(C)c3)nc3[nH]cc(C#N)c23)c1 [Example 57] | 10 to 100 | < 10 | > 1000 | 10 to 100 |
| 558 | 10 | > 10000 | 218 | 237 | – | – | C=CC(=O)N(C)[C@H]1C[C@H](Oc2nc(Nc3cn(C)nc3C)nc3[nH]cc(Cl)c23)C1 [Example 62] | < 10 | 10 to 100 | 10 to 100 | 10 to 100 |
| 592 | 12 | > 10000 | 113 | 269 | – | – | C=CC(=O)N1C[C@H](COc2nc(Nc3cn(C)nc3OC)nc3[nH]cc(Cl)c23)[C@@H](OC)C1 [Example 70] | 10 to 100 | 100 to 1000 | 100 to 1000 | 100 to 1000 |
| – | 20 | > 5460 | 143 | 356 | – | – | C=CC(=O)N1C[C@@H]2CN(c3nc(Nc4cnn(C)c4)nc4[nH]cc(Cl)c34)C[C@@H]2C1 [Example 71] | 10 to 100 | 10 to 100 | 100 to 1000 | 100 to 1000 |
| – | – | > 10000 | 5190 | – | – | 301 | C=CC(=O)N[C@H]1CC[C@@H](Oc2nc(Nc3cnn(C)c3)nc3[nH]cc(Cl)c23)C1 [Example 77] | 100 to 1000 | > 1000 | > 1000 | 100 to 1000 |
| 5240 | – | – | – | – | 1100 | 175 | C=CC(=O)N1C[C@@H]2CN(c3nc(Nc4cnn(C)c4)nc4[nH]cc(Cl)c34)C[C@]2(O)C1 [Example 84] | – | – | – | – |
| 383 | – | – | – | – | 26 | 31 | C=CC(=O)N1C[C@H](COc2nc(Nc3cnn(CC#N)c3)nc3[nH]cc(Cl)c23)[C@@H](OC)C1 [Example 93] | – | – | – | – |
| 4430 | – | – | – | – | 608 | 385 | C=CC(=O)N(C)[C@@H]1CCCN(c2nc(Nc3cnn(C)c3)nc3[nH]cc(Cl)c23)C1 [Example 94] | – | – | – | – |
| – | 3 | 2170 | 26 | 12 | – | – | C=CC(=O)Nc1cc(F)cc(Oc2nc(Nc3cnn([C@@H]4CCN(C)C4)c3)nc3[nH]ccc23)c1 [Example 107] | < 10 | < 10 | 10 to 100 | 10 to 100 |
| 352 | 7 | > 10000 | 164 | 81 | – | – | C=CC(=O)N(C)[C@H]1C[C@H](Oc2nc(Nc3cnn(C)c3)nc3[nH]cc(Cl)c23)C1 [Example 108] | < 10 | 10 to 100 | 100 to 1000 | 10 to 100 |
